{"source": "ChEMBL document CHEMBL3351608", "about": "“2-Phenylindole and Arylsulphonamide: Novel Scaffolds Bactericidal against Mycobacterium tuberculosis” (ACS Med Chem Lett, 2014)", "key": {"[1]": {"system": "Mycobacterium tuberculosis", "type": "functional", "settings": "H37Rv, 120 h"}, "[2]": {"system": "Mycobacterium tuberculosis", "assay": "microbe, parasite or virus in culture", "settings": "120 h"}}}
{"smiles": "Cc1cccc2c(CN3CCC(NS(C)(=O)=O)C3)c(-c3ccccc3)[nH]c12", "note": "(racemic)", "values": [{"measurement": "MIC", "setting": "[1]", "result": 1.6, "unit": "µM"}]}
{"smiles": "Cc1cc(-n2cccn2)ccc1S(=O)(=O)NC1CCN(Cc2ccncc2)CC1", "values": [{"measurement": "MIC", "setting": "[1]", "result": 0.8, "unit": "µM"}]}
{"smiles": "CC1COC2(CCN(c3nc(=O)c4cc(C(F)(F)F)cc([N+](=O)[O-])c4s3)CC2)O1", "note": "(centres undefined)", "values": [{"measurement": "MIC", "setting": "[2]", "result": 0.01, "unit": "µM"}]}
{"smiles": "CO[C@H]1/C=C/O[C@@]2(C)Oc3c(C)c(O)c4c(O)c(c(/C=N/N5CCN(C)CC5)c(O)c4c3C2=O)NC(=O)/C(C)=C\\C=C\\[C@H](C)[C@H](O)[C@@H](C)[C@@H](O)[C@@H](C)[C@H](OC(C)=O)[C@@H]1C", "note": "[RIFAMPIN]", "values": [{"measurement": "MIC", "setting": "[2]", "result": 12.5, "unit": "µM"}]}
{"smiles": "COCCN(C1CCN(Cc2c(-c3ccccc3)[nH]c3c(C)cccc23)C1)S(C)(=O)=O", "note": "(centres undefined)", "values": [{"measurement": "MIC", "setting": "[1]", "result": 0.8, "unit": "µM"}, {"measurement": "MIC", "setting": "[2]", "result": 1.6, "unit": "µM"}]}
{"smiles": "O=S(=O)(NC1CCN(Cc2ccncc2)CC1)c1ccc(-n2cccn2)cc1", "values": [{"measurement": "MIC", "setting": "[1]", "result": 3.3, "unit": "µM"}, {"measurement": "MIC", "setting": "[2]", "result": 1.6, "unit": "µM"}]}
{"smiles": "NNC(=O)c1ccncc1", "note": "[ISONIAZID]", "values": [{"measurement": "MIC", "setting": "[2]", "result": 0.5, "unit": "µM"}]}
